This is an account of results in patent publication US20250288581A1, “BALIPODECT FOR TREATING OR PREVENTING AUTISM SPECTRUM DISORDERS” (TAKEDA PHARMACEUTICAL COMPANY LIMITED, priority 2018, published 2025).

Data set [1] relates to CDKL5 male hemizygous (-/Y) mice. In words: Open Field Test in CDKL5 knock-out mice model. The data set is classed as in vivo. To be noted: Compound A 5 mg/kg once per day oral; 15-minute trial; vs Groups (1) and (2); FIGS. 2A, 2B. The procedure:
Spontaneous activity in an Open Field Arena is commonly used to assess general activity and ambulation. Mice were placed in the center of an arena for a fifteen-minute trial. The horizontal, vertical (rearing) and center activity are dependent variables.
FIG. 2A provides the results per minute from 0 to 15 minutes. FIG. 2B provides the results in five-minute intervals from 5 to 15 minutes.

Data set [2] is described as follows: Plasma and brain exposure analysis after oral administration. The data set is classed as in vivo. To be noted: CDKL5-/Y mice; for concentration at 24 h: male, CDKL5-/Y, mouse, 5 mg/kg. The source says: (§1) Neurobehavioral assays were run when the mice were 8-10 weeks old. Tissues were collected at the end of the study to determine plasma and CNS PK.
In Table 1, “LLOQ” is the “lower limit of quantification”, and it is used to indicate the sensitivity of the assays. The numbers in plasma and brain columns are in ng/mL for plasma and ng/g for brain.

Data set [3] concerns Male FMR1 knockout mice. As to the kind of experiment: Suppression of audiogenic seizures in FMR1 mouse model of Fragile X Syndrome. It is filed as in vivo. Conditions: 125 dB tone, vs vehicle Group (1); for Latency to seizure: 5-minute test, Compound A 5 mg/kg oral 150 min prior, MPEP 30 mg/kg i.p. 30 min prior, FIG. 5; for Percent seizure (seizure rates): Compound A 5 mg/kg oral, MPEP 30 mg/kg i.p., p<0.05, FIG. 6. The procedure: Male FMR1 knockout mice were bred at PsychoGenics. The mice were housed in OPTI-Mice ventilated cages for the duration of the study. All mice were acclimated to the environment, examined, handled, and weighed prior to initiation of the study to assure adequate health and suitability and to minimize non-specific stress associated with manipulation. During the course of the study, 12/12 light/dark cycles were maintained. The room temperature was maintained between 20 and 23° C. with a relative humidity maintained around 50%. Chow and water were provided ad libitum for the duration of the study. Each mouse was randomly assigned across treatment groups. The testing was performed during the animals' light cycle phase at 3 weeks of age.
Prior to audiogenic seizures, on test day, three groups of mice were pre-treated as follows: • Group (1): a vehicle orally administered at a dose volume of 10 mL/kg, 150 minutes prior to testing. • Group (2): 6-Methyl-2-(phenylethynyl) pyridine HCI (“MPEP”) (Sigma Aldrich; 30 mg/kg) was dissolved in sterile injectable saline and was administered by intraperitoneal injection at a dose volume of 10 mL/kg, 30 minutes prior to testing.
After the pre-treatments, the mice of Groups (1)-(3) were individually placed in a Plexiglas chamber and allowed to explore for 15 seconds. Then, they were exposed to a 125 dB tone. The observer was blinded to the pre-treatment conditions during the test. The mice were scored by the observer based on their response, latency, and seizure intensity during a 5-minute test as follows: • 0: no response • 1. wild running and jumping • 2: clonic seizures • 3: clonic-tonic seizures • 4: tonic seizures • 5: respiratory arrest
The following endpoints were reported. […] Latency to seizure (max 300 sec. if no seizure) • 2. Percent seizure • 3. Seizure score

For data set [4], the system named is Male FMR1 knockout mice. In words: Fear Conditioning test in FMR1 mouse model of FXS. It is filed as in vivo. The procedure: After completion of the open field test described in Example 6, a Fear Conditioning test was conducted on the mice of Groups (1)-(3) in a fear conditioning system manufactured by Coulbourn Instruments (PA, USA).
On day 1, mice were placed in a conditioning chamber to habituate to the context for 2 minutes […]. A tone was presented for 20 seconds. 30 seconds after the CS ended, a foot shock (1 s, 0.5 mA) was presented (US). The pairing of the CS and US was repeated a total of 3 times, with an interval of 60 seconds between pairings. Mice remained in the conditioning chamber for another 60 seconds, and then returned to their home cage.
In the morning of day 2, mice were tested for contextual memory. Mice were placed in chambers for 5 minutes. In the afternoon of day 2, mice were tested for cued memory. Mice were placed in the conditioning chamber to habituate to the context for 2 minutes (Pre-Cue). Then, the CS was presented for a total of three times for 20 seconds, with 60 second inter-trial intervals. Freezing behavior, defined as the complete lack of movement, was captured automatically with a video system and Freeze View software (Coulbourn Instruments, PA, USA).

For data set [5], the system named is CDKL5 male hemizygous (-/Y) mice. In words: Hindpaw clasping (amplexus) test in CDKL5 knock-out mice model. The data set is classed as in vivo. To be noted: Compound A 5 mg/kg once per day oral gavage; vs CDKL5-/Y vehicle Group (2); FIG. 1. The procedure: A hind paw clasping test was performed in accordance with the procedures outlined by Wang et al., PNAS, vol. 109, no. 52, pp. 21516-21521 (2012). The test is done in a CDKL5 knock-out mice model. Mice are suspended for a two-minute trial. If clasping occurs for two seconds, the mouse is positive for CDKL5 deficiency, which is a neurological impairment. Wang et al. noted the CDKL5 mutant mice, but no quantification was made. Tang et al., J. Neurosci. 37(31):7420-7437 (2017) reported 17/18 (94%) hemi male mice were positive for the clasp phenotype.
as §1
If clasping occurs for two seconds, the mouse is positive for CDKL5 deficiency.

In data set [6] the test system is Male FMR1 knockout mice. In words: Open Field Test in FMR1 mouse model of FXS. It is filed as in vivo. To be noted: Compound A 5 mg/kg oral for two weeks; FIGS. 7 and 8. The procedure: Male FMR1 knockout (“KO”) mice and wild-type (“WT”) mice were bred at PsychoGenics. These mice were handled and chosen according to Example 5. However, the open field test started at 10 weeks of age, following 2 weeks of dosing. Three groups of mice were tested as follows: • Group (1): WT—Vehicle Group: a vehicle was orally administered for two weeks at a dose volume of 10 mL/kg. On testing days, the vehicle was administered 150 minutes prior to testing. • Group (2): FMR1 KO—Group: a vehicle was orally administered for two weeks at a dose volume of 10 mL/kg.
Open field chambers made of Plexiglas square chambers (27.3×27.3×20.3 cm; Med Associates Inc., St Albans, VT) surrounded by infrared photo beams (16×16×16) were used to measure horizontal and vertical activity of tested mice. The mice were brought into the chamber for at least 1 hour acclimation to the experimental room conditions prior to testing. Following 150 minutes of pre-treatment, the mice were placed in the center of the chamber for a 60-minute test period. After the 60-minutes, the mice were placed back into their home cage. During the test period, locomotor activity was measured in 5 minute intervals and total distance traveled was measured.

The nature of data set [7]: Fraction unbound in plasma (fu, plasma). It is filed as in vitro ADME. To be noted: mouse. The text has this:
An in vitro profile of the PDE10A inhibitor was created for the CDKL5-/Y mice.

Where “and” joins values, the source holds several entries; their conditions need not be identical. Identical values can stand only once. Like-named read-outs stand apart in the source and are kept apart here.

As to `COc1cn(-c2ccc(-n3cccn3)cc2F)nc(-c2ccnn2-c2ccccc2)c1=O` [Compound A, 1-[2-fluoro-4-(1H-pyrazol-1-yl)phenyl]-5-methoxy-3-(1-phenyl-1H-pyrazol-5-yl)pyridazin-4(1H)-one], the “total distance traveled in the open field” value in data set [1] was “significantly suppressed the total distance traveled”. In data set [2] (oral 5 mg/kg once per day, 14 days, 24 hours after the last dose, LLOQ 0.1), the “Concentration in mouse plasma, individual sample” value is 4.3 ng/mL and 8.0 ng/mL and 4.4 ng/mL and 4.8 ng/mL and 2.8 ng/mL and 7.0 ng/mL and 3.1 ng/mL. The “Concentration in mouse brain, individual sample” value in data set [2] (oral 5 mg/kg once per day, 14 days, 24 hours after the last dose, LLOQ 0.5) was 48.2 ng/g and 38.9 ng/g and 64.5 ng/g and 44.9 ng/g and 43.8 ng/g. Further, the concentration at 24 h in data set [2] (brain, po, oral 5 mg/kg once per day, 14 days, 24 hours after the last dose, LLOQ 0.5, read-out: Concentration in mouse brain, individual sample) was 36.3 ng/g; in data set [2] (brain, po, oral 5 mg/kg once per day, 14 days, 24 hours after the last dose, N=6-7, read-out: Concentration in mouse brain, Mean) it was 46.1 ng/g; in data set [2] (plasma, oral, 24 hours after the last administration, read-out: plasma concentration in all mice vs target IC50 in vivo), more than 1.1 ng/mL; in data set [2] (plasma, po, oral 5 mg/kg once per day, 14 days, 24 hours after the last dose, N=6-7, read-out: Concentration in mouse plasma, Mean), 4.9 ng/mL. In the data set on Male FMR1 knockout mice [3], the Latency to seizure entry is recorded as “increased the latency to seizure”. Besides, in the data set on Male FMR1 knockout mice [3], the “Percent seizure (seizure rates)” value is “significantly decreased seizure rates”. The “freezing response, contextual fear conditioning time course” value in the data set on Male FMR1 knockout mice [4] (5 minute test, minute 2 and minute 5, Compound A 5 mg/kg oral, FIG. 10) was “increased freezing response”. Moreover, the “freezing behavior during Pre-Cue, cued fear conditioning” value with Male FMR1 knockout mice [4] (ANOVA between treatment groups, FIG. 11) is “no significant differences”. Moreover, the “freezing response during Cue, cued fear conditioning” value in the data set with Male FMR1 knockout mice [4] (FMR1 mice, p=0.06, FIG. 11) is reported as “strong trend to increasing freezing response”. In addition, the “freezing response during Post-Cue, cued fear conditioning” value with Male FMR1 knockout mice [4] (FMR1 mice, FIG. 11) was “increased freezing response”. For the same molecule, the “percentage of no clasping” value in data set [5] is reported as “increased the percentage of no clasping”. In addition, in the data set on Male FMR1 knockout mice [6], the “hyperactivity (total distance traveled, 60-minute open field test)” value is “suppresses hyperactivity”. The fraction unbound (in general, free concentration divided by total concentration) in data set [7] was 0.116.

In the case of `Cc1cccc(C#Cc2ccccc2)n1.Cl` [MPEP, 6-Methyl-2-(phenylethynyl) pyridine HCl, reference compound], in the data set on Male FMR1 knockout mice [3], the Latency to seizure entry is “increased the latency to seizure” and the “Percent seizure (seizure rates)” value is “significantly decreased seizure rates”.
